Inhibition data for eleven molecules are collected here from ChEMBL document CHEMBL5442219.

The term inhibition denotes the relative decrease from the control value, in per cent.

Settings in all cases: Compound concentration 10 µM
Assay [1] concerns the target 5-hydroxytryptamine receptor 2A (Homo sapiens) (UniProt P28223).
Description: PDSP Primary Binding target: HTR2A - Compounds are tested at 10 uM concentration, plate are incubated at room temperature in the dark for 90 minutes. Reaction are stopped by vacuum filtration onto 0.3% polyethyleneimine soaked filter mats using Filtermate harvester. Scintilation cocktail is then melted onto microwave-dried filters on a hot plate and the radio activity is counted in Microbia counter.
The target of assay [2] is T1, 5-hydroxytryptamine receptor 1A (Homo sapiens) (UniProt P08908).
T1 sequence (whole entry): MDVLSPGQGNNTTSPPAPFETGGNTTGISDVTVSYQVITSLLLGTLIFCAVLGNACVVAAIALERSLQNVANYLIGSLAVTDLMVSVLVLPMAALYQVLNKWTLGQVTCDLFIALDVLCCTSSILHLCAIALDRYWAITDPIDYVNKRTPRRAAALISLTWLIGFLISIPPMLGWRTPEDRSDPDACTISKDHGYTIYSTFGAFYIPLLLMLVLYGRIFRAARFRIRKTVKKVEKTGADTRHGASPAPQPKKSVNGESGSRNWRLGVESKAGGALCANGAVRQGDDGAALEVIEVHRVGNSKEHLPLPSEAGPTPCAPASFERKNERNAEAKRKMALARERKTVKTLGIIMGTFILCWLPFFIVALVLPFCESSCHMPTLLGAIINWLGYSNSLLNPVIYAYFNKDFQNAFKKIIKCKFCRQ
Description: PDSP Primary Binding target: HTR1A - Compounds are tested at 10 uM concentration, plate are incubated at room temperature in the dark for 90 minutes. Reaction are stopped by vacuum filtration onto 0.3% polyethyleneimine soaked filter mats using Filtermate harvester. Scintilation cocktail is then melted onto microwave-dried filters on a hot plate and the radio activity is counted in Microbia counter.

The target in assay [3] is Histamine H2 receptor (Homo sapiens) (UniProt P25021).
Histamine H2 receptor (Homo sapiens), sequence (P25021 whole entry): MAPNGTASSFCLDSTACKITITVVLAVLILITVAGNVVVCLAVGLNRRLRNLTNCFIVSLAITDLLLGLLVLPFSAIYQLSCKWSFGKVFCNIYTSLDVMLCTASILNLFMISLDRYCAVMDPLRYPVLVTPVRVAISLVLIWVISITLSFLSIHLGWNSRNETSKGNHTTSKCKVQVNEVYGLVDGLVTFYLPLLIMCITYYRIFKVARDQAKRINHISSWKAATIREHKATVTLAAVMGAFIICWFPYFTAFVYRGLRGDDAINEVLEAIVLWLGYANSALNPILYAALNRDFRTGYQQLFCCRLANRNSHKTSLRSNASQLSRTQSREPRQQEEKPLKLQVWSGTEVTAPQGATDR
Description: PDSP Primary Binding target: HRH2 - Compounds are tested at 10 uM concentration, plate are incubated at room temperature in the dark for 90 minutes. Reaction are stopped by vacuum filtration onto 0.3% polyethyleneimine soaked filter mats using Filtermate harvester. Scintilation cocktail is then melted onto microwave-dried filters on a hot plate and the radio activity is counted in Microbia counter.
Assay [4] addresses T2, Alpha-1A adrenergic receptor (Homo sapiens) (UniProt P35348).
T2 sequence (whole entry): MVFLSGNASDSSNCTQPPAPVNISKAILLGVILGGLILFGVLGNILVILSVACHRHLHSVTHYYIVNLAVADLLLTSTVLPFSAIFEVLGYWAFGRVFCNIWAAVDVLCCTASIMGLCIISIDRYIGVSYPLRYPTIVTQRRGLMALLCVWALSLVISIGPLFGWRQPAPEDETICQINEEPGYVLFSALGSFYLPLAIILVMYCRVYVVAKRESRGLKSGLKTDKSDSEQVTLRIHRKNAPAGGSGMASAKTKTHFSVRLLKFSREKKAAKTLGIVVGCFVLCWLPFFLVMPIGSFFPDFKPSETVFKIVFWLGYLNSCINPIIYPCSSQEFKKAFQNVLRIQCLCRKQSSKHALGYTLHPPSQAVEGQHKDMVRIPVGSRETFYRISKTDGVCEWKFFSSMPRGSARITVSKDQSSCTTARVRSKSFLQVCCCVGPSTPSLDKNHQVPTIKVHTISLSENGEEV
Description: PDSP Primary Binding target: ADRA1A - Compounds are tested at 10 uM concentration, plate are incubated at room temperature in the dark for 90 minutes. Reaction are stopped by vacuum filtration onto 0.3% polyethyleneimine soaked filter mats using Filtermate harvester. Scintilation cocktail is then melted onto microwave-dried filters on a hot plate and the radio activity is counted in Microbia counter.

For assay [5], the target named is Mu-type opioid receptor (Homo sapiens) (UniProt P35372).
Mu-type opioid receptor (Homo sapiens), sequence (P35372 whole entry): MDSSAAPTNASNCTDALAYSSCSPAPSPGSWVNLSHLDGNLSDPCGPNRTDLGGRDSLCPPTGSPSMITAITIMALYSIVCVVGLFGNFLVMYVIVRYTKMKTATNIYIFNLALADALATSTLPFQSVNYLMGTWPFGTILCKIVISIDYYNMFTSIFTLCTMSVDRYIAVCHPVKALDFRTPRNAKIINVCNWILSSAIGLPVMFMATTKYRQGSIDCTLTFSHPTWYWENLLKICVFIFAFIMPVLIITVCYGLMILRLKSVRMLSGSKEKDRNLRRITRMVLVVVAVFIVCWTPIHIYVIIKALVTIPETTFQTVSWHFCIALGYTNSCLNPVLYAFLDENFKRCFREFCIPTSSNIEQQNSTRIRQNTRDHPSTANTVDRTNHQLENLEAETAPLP
Description: PDSP Primary Binding target: OPRM1 - Compounds are tested at 10 uM concentration, plate are incubated at room temperature in the dark for 90 minutes. Reaction are stopped by vacuum filtration onto 0.3% polyethyleneimine soaked filter mats using Filtermate harvester. Scintilation cocktail is then melted onto microwave-dried filters on a hot plate and the radio activity is counted in Microbia counter.
Assay [6] has as its target 5-hydroxytryptamine receptor 1E (Homo sapiens) (UniProt P28566).
Description: PDSP Primary Binding target: HTR1E - Compounds are tested at 10 uM concentration, plate are incubated at room temperature in the dark for 90 minutes. Reaction are stopped by vacuum filtration onto 0.3% polyethyleneimine soaked filter mats using Filtermate harvester. Scintilation cocktail is then melted onto microwave-dried filters on a hot plate and the radio activity is counted in Microbia counter.
The target in assay [7] is Histamine H1 receptor (Homo sapiens) (UniProt P35367).
Histamine H1 receptor (Homo sapiens), sequence (P35367 whole entry): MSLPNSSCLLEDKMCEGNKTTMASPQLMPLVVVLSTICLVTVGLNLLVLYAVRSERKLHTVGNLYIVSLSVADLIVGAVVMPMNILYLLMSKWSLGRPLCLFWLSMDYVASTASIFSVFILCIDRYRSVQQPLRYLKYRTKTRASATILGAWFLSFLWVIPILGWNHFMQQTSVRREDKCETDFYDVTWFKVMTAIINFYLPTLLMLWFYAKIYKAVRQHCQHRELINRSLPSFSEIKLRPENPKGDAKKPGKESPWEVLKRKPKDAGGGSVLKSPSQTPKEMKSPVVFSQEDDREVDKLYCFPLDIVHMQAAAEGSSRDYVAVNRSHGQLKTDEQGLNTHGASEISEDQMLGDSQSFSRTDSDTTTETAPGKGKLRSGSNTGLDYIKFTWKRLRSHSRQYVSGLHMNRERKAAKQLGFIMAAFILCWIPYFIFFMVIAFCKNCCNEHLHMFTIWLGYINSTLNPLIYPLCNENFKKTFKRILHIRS
Description: PDSP Primary Binding target: HRH1 - Compounds are tested at 10 uM concentration, plate are incubated at room temperature in the dark for 90 minutes. Reaction are stopped by vacuum filtration onto 0.3% polyethyleneimine soaked filter mats using Filtermate harvester. Scintilation cocktail is then melted onto microwave-dried filters on a hot plate and the radio activity is counted in Microbia counter.
The target of assay [8] is Histamine H3 receptor (Homo sapiens) (UniProt Q9Y5N1).
Histamine H3 receptor (Homo sapiens), sequence (Q9Y5N1 whole entry): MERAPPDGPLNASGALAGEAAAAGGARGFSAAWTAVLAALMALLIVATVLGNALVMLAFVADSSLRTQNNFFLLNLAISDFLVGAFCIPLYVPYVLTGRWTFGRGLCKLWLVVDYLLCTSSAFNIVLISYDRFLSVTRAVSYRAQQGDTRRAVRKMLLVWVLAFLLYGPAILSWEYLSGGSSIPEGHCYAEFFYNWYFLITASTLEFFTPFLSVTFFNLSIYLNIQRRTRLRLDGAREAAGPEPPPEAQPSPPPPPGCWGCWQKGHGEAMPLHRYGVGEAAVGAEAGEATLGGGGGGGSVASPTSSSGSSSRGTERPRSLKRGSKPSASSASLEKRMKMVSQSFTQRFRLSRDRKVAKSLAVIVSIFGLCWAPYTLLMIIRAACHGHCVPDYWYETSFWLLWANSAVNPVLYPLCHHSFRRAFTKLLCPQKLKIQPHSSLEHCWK
Description: PDSP Primary Binding target: HRH3 - Compounds are tested at 10 uM concentration, plate are incubated at room temperature in the dark for 90 minutes. Reaction are stopped by vacuum filtration onto 0.3% polyethyleneimine soaked filter mats using Filtermate harvester. Scintilation cocktail is then melted onto microwave-dried filters on a hot plate and the radio activity is counted in Microbia counter.
Assay [9] has as its target Sodium-dependent dopamine transporter (Homo sapiens) (UniProt Q01959).
Description: PDSP Primary Binding target: SLC6A3 - Compounds are tested at 10 uM concentration, plate are incubated at room temperature in the dark for 90 minutes. Reaction are stopped by vacuum filtration onto 0.3% polyethyleneimine soaked filter mats using Filtermate harvester. Scintilation cocktail is then melted onto microwave-dried filters on a hot plate and the radio activity is counted in Microbia counter.
The target of assay [10] is 5-hydroxytryptamine receptor 1B (Homo sapiens) (UniProt P28222).
5-hydroxytryptamine receptor 1B (Homo sapiens), sequence (P28222 whole entry): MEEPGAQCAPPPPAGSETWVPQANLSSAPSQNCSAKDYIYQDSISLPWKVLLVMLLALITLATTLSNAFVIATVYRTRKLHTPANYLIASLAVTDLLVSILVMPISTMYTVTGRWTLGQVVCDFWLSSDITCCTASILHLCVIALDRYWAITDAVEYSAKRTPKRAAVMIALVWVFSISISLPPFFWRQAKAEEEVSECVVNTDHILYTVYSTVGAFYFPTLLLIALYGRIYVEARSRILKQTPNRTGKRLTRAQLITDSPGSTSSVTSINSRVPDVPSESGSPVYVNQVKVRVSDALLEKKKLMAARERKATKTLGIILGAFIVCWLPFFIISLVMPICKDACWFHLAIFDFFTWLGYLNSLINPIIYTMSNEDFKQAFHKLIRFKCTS
Description: PDSP Primary Binding target: HTR1B - Compounds are tested at 10 uM concentration, plate are incubated at room temperature in the dark for 90 minutes. Reaction are stopped by vacuum filtration onto 0.3% polyethyleneimine soaked filter mats using Filtermate harvester. Scintilation cocktail is then melted onto microwave-dried filters on a hot plate and the radio activity is counted in Microbia counter.
Assay [11] deals with T3, Muscarinic acetylcholine receptor M5 (Homo sapiens) (UniProt P08912).
T3 sequence (whole entry): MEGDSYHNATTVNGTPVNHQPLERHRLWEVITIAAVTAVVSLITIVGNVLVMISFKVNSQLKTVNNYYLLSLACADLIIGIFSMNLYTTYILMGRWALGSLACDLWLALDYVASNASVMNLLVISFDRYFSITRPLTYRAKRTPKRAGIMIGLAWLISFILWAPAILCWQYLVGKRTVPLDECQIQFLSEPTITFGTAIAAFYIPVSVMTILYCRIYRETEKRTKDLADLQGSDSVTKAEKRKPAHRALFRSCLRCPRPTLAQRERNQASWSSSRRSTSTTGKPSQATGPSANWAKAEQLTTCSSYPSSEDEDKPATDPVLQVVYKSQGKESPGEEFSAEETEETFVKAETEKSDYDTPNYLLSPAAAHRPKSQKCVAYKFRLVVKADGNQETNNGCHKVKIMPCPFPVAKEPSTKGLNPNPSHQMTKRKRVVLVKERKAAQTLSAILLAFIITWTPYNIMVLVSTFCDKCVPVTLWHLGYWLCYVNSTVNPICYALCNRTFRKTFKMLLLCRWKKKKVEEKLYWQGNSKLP
Description: PDSP Primary Binding target: CHRM5 - Compounds are tested at 10 uM concentration, plate are incubated at room temperature in the dark for 90 minutes. Reaction are stopped by vacuum filtration onto 0.3% polyethyleneimine soaked filter mats using Filtermate harvester. Scintilation cocktail is then melted onto microwave-dried filters on a hot plate and the radio activity is counted in Microbia counter.

Assay [12] concerns the target 5-hydroxytryptamine receptor 5A (Homo sapiens) (UniProt P47898).
Description: PDSP Primary Binding target: HTR5A - Compounds are tested at 10 uM concentration, plate are incubated at room temperature in the dark for 90 minutes. Reaction are stopped by vacuum filtration onto 0.3% polyethyleneimine soaked filter mats using Filtermate harvester. Scintilation cocktail is then melted onto microwave-dried filters on a hot plate and the radio activity is counted in Microbia counter.
Assay [13] addresses T4, Alpha-1D adrenergic receptor (Homo sapiens) (UniProt P25100).
T4 sequence (whole entry): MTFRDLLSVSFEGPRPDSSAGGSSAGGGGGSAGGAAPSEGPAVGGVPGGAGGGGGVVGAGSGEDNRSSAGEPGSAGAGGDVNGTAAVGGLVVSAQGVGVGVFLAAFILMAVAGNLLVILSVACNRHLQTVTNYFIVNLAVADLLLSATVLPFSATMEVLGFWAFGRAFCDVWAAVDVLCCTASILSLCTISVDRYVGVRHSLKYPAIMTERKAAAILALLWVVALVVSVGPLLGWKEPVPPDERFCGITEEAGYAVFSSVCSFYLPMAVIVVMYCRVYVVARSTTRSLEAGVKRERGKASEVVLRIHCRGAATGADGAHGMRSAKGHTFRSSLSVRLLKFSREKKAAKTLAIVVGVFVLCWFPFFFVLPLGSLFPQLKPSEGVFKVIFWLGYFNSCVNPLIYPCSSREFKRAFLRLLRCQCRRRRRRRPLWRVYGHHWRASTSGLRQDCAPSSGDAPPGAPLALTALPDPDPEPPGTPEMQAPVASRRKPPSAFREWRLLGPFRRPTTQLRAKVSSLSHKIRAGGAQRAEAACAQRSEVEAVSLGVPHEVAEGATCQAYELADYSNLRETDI
Description: PDSP Primary Binding target: ADRA1D - Compounds are tested at 10 uM concentration, plate are incubated at room temperature in the dark for 90 minutes. Reaction are stopped by vacuum filtration onto 0.3% polyethyleneimine soaked filter mats using Filtermate harvester. Scintilation cocktail is then melted onto microwave-dried filters on a hot plate and the radio activity is counted in Microbia counter.

Assay [14] deals with Sodium-dependent serotonin transporter (Homo sapiens) (UniProt P31645).
Sodium-dependent serotonin transporter (Homo sapiens), sequence (P31645 whole entry, looked up): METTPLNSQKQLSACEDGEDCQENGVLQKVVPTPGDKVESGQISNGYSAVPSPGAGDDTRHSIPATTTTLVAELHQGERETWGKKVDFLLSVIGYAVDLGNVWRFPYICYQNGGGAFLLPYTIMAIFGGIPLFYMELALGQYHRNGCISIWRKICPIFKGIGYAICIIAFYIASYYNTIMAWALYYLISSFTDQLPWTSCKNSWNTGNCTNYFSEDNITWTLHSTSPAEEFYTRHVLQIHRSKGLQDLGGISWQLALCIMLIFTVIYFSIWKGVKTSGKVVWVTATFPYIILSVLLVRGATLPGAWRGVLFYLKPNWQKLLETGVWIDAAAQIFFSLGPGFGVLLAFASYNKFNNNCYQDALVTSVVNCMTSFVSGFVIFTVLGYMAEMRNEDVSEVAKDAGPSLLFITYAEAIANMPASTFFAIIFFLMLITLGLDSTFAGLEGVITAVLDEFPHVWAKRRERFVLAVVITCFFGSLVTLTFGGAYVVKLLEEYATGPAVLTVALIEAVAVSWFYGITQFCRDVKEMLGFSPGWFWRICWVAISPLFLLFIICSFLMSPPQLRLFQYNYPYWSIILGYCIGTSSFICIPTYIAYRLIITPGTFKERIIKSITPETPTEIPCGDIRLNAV
Description: PDSP Primary Binding target: SLC6A4 - Compounds are tested at 10 uM concentration, plate are incubated at room temperature in the dark for 90 minutes. Reaction are stopped by vacuum filtration onto 0.3% polyethyleneimine soaked filter mats using Filtermate harvester. Scintilation cocktail is then melted onto microwave-dried filters on a hot plate and the radio activity is counted in Microbia counter.
For assay [15], the target named is Beta-1 adrenergic receptor (Homo sapiens) (UniProt P08588).
Description: PDSP Primary Binding target: ADRB1 - Compounds are tested at 10 uM concentration, plate are incubated at room temperature in the dark for 90 minutes. Reaction are stopped by vacuum filtration onto 0.3% polyethyleneimine soaked filter mats using Filtermate harvester. Scintilation cocktail is then melted onto microwave-dried filters on a hot plate and the radio activity is counted in Microbia counter.
Assay [16] concerns the target 5-hydroxytryptamine receptor 1D (Homo sapiens) (UniProt P28221).
Description: PDSP Primary Binding target: HTR1D - Compounds are tested at 10 uM concentration, plate are incubated at room temperature in the dark for 90 minutes. Reaction are stopped by vacuum filtration onto 0.3% polyethyleneimine soaked filter mats using Filtermate harvester. Scintilation cocktail is then melted onto microwave-dried filters on a hot plate and the radio activity is counted in Microbia counter.

5-hydroxytryptamine receptor 5A (Homo sapiens), sequence (P47898 whole entry): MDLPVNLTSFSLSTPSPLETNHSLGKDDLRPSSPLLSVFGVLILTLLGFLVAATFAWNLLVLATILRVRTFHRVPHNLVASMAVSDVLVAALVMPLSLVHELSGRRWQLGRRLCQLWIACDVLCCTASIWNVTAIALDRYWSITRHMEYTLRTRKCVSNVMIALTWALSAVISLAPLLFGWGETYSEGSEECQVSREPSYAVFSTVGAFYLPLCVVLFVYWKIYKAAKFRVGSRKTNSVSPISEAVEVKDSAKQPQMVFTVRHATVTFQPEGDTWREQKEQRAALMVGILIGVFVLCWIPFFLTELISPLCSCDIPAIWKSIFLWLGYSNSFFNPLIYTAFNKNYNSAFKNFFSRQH
5-hydroxytryptamine receptor 1D (Homo sapiens), sequence (P28221 whole entry): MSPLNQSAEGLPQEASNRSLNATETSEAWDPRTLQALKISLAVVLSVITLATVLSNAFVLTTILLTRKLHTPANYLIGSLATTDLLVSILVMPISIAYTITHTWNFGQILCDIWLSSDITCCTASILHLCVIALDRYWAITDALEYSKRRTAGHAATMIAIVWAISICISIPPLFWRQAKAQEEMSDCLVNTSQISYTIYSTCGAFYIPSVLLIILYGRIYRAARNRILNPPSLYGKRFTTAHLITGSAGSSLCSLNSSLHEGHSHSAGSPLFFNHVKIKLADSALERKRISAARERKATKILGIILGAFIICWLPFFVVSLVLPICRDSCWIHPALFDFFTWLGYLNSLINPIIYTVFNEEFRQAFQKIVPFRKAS
5-hydroxytryptamine receptor 1E (Homo sapiens), sequence (P28566 whole entry): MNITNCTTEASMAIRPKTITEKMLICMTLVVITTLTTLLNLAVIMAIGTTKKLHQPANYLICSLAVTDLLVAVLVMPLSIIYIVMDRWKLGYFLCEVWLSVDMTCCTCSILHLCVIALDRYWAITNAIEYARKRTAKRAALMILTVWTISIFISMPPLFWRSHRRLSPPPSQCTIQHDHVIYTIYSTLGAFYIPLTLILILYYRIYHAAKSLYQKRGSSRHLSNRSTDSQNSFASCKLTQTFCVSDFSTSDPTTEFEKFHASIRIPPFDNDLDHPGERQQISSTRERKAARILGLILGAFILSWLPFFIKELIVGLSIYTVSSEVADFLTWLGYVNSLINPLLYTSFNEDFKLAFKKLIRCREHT
5-hydroxytryptamine receptor 2A (Homo sapiens), sequence (P28223 whole entry): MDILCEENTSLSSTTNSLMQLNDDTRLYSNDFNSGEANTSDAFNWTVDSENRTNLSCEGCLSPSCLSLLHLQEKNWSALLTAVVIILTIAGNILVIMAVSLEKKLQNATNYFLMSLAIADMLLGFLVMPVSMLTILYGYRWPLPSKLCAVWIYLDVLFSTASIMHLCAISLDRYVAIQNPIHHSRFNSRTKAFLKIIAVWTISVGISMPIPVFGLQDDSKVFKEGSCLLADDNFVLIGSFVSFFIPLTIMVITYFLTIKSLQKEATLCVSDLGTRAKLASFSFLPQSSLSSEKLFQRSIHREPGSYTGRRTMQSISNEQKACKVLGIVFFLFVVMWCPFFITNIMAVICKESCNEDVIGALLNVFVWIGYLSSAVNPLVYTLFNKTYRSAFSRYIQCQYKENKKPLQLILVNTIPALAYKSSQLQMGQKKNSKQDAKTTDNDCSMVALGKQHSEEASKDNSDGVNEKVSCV
Sodium-dependent dopamine transporter (Homo sapiens), sequence (Q01959 whole entry): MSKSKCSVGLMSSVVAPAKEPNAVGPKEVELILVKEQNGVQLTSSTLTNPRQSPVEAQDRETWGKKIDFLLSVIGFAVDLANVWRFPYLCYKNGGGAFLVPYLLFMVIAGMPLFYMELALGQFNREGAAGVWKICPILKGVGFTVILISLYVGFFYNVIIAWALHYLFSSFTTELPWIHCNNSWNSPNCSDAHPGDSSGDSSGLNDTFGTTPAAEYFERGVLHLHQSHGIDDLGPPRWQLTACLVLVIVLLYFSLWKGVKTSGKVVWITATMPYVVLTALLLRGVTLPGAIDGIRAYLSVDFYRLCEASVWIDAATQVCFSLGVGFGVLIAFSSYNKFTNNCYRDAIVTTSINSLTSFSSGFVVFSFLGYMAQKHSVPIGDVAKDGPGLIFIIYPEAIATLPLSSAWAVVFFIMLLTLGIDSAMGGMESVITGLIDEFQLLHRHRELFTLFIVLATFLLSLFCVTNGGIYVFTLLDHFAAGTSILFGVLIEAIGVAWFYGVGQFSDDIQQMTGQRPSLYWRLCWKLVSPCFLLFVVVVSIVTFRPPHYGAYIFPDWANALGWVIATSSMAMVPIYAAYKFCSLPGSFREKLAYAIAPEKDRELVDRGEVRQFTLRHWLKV

Turning to `O=C(O)CC/C=C\C[C@@H]1CO[C@H](c2ccccc2Cl)O[C@@H]1c1ccccc1O`, the inhibition is 3.61% in assay [1]; 16.9% in assay [2]; 31.1% in [3]; -9.2% in [4]; 8.82% in assay [5]; -6.67% in assay [6]. Moreover, the figures for the inhibition in [7] and in [8] were 33.4% and 6.14%, respectively.
As for `CCc1cc2c(c(CC)n1)CCC(=O)N2Cc1ccc(-c2ccccc2-c2nnn[nH]2)cc1`, the inhibition in assay [9] is 8.77%; in assay [1], 29.2%; in assay [10], 11.5%; in assay [2], -4.87%; in assay [3], 26.1%; in assay [4] it was 18.5%. For the same molecule, the inhibition in assay [5] was 51.6%; in assay [11] it was -1.14%; in [6], -6.23%; in assay [7] it was 8.58%; in assay [12] it was -4.8%.
As to `O=C(Cc1ccccc1)Nc1nc2ccc(Cl)cc2c2nc(-c3ccco3)nn12`, the inhibition is 27.1% in [9]; 16.8% in assay [1]; -5.53% in assay [13]; -8.72% in assay [2]; 13.8% in [3]; 10.4% in assay [4]. Also, the inhibition in [5] is 17.8%; in assay [11], -3.93%; in [6], 7.51%; in [7], 29.1%; in [12], 15.2%.
Take `O=C(Nc1ccc(Cl)cc1)Nc1cccc(-c2cccc(N3CCCC3)n2)c1`: the inhibition in assay [9] is 18.3%; in assay [1], 11%; in assay [13], 0.2%; in assay [2], 28.2%; in [3] it was 20%; in assay [4], 1.27%. Further, the inhibition in [5] was -5.02%; in assay [11], -5.29%; in assay [6], 2.89%; in assay [7] it was -4.85%.
Take `O=C(c1cc2c(cc1F)OC(c1ccc(F)cc1)(c1ccc(Cl)cc1Cl)O2)N1CCOCC1` (stereo not drawn): the inhibition in assay [9] is 59%; in assay [1], 57.3%; in [10] it was 27.6%; in assay [13] it was 3.46%; in [2], 5.52%; in assay [14], 15.9%. Further, the inhibition in [4] is 14.6%; in assay [5] it was 52.7%; in [11] it was -6.56%; in assay [6], 19.9%; in assay [15], 8.99%; in assay [7] it was 15.4%. The results for the inhibition in [8], in [16] and in assay [12] were 21%, 20.9% and -2.04%, respectively.
As for `Cc1ccccc1C(=O)Nc1ccc(C(=O)N2CCCC(O)c3cc(Cl)ccc32)c(C)c1` (stereo not drawn), the inhibition in assay [9] was 21.9%; in assay [1], 12.9%; in assay [10] it was 14.4%; in [13], 12.7%; in [2] it was 7.65%; in assay [14], 10.7%. In addition, the inhibition in assay [4] was 8.56%; in assay [5] it was 53.2%; in [11], 4.97%; in assay [6], 0.51%; in [15] it was 12.2%; in assay [7] it was 70.8%. In addition, the inhibition in [8] was 6.39%; in assay [16], 88.5%; in assay [12], 11.7%.
Regarding `Cc1cc(C)cc(C(=O)N(C)[C@H](Cc2ccc(-c3ccccc3)cc2)C(=O)N[C@@H](Cc2c[nH]c3ccccc23)C(=O)O)c1`, the inhibition is 32.2% in assay [9]; 31.2% in assay [1]; 7.51% in assay [13]; 15.9% in assay [2]; 34.1% in assay [3]; 22.3% in assay [4]. In addition, the inhibition in [5] was -1.4%; in assay [7] it was 15.5%.
For `N#Cc1c(N)nc(SCC(N)=O)c(C#N)c1-c1ccc(OCC2CC2)cc1`, the inhibition in [9] was 3.03%; in assay [1] it was 28.7%; in [13], 0.73%; in assay [2], 2.75%; in assay [3], 41.5%; in [4], 16.2%. The inhibition in assay [5] was -0.63%; in assay [11] it was 10.4%; in [7], 22.6%; in assay [8], -3.51%; in assay [12] it was 7.71%.
Take `CC(C)NCC(O)c1ccc(N)c(C#N)c1` (stereo not drawn): the inhibition in assay [9] was 29%; in assay [1], 9.46%; in [2] it was 37.6%; in [3], 5.77%; in assay [4], -0.15%; in assay [11] it was -0.9%. In addition, the inhibition is 32.7% in assay [6], 34.1% in assay [7] and 3.66% in assay [8].
For the molecule `S=C(NCCCc1c[nH]cn1)NCCCN(Cc1ccc(Cl)c(Cl)c1)c1ccc(Br)cn1`, the inhibition is 94.8% in [9]; 85.2% in assay [1]; 93.3% in assay [10]; 65.9% in assay [13]; 43.2% in [2]; 95% in assay [14]. The inhibition is 84.5% in assay [4]; 28.7% in assay [5]; 87.6% in [11]; 7.46% in assay [6]; 49.2% in assay [15]; 83% in assay [7]. Moreover, the inhibition in assay [8] is 100%; in assay [16], 149%; in assay [12] it was 96.7%.
Turning to `COC(=O)C1=C(C)NC(C)=C(C(=O)OCCCN2CCC(c3ccccc3)(c3ccccc3)CC2)[C@H]1c1cccc([N+](=O)[O-])c1`, the inhibition in assay [9] was 89.7%; in [1] it was -1.08%; in [10], 89.2%; in assay [13], 83.9%; in assay [2] it was 83.7%; in assay [14] it was 85.7%. Besides, the inhibition was 98.9% in assay [4]; 92% in assay [5]; 89.6% in assay [11]; 40% in [6]; 31.8% in [15]; 98.8% in [7]. The inhibition in assay [8] is 62.2%; in assay [16] it was 75.9%; in assay [12], 68.7%.
